In the CheMixHub viscosity set:
± gives the uncertainty stated by the source.

Experiment: xn = mol fraction of the nth substance listed

CCCCOCCO + OCCOCCO
101 kPa
Details	viscosity [mPa·s]
293.15 K, x1 = 0.0527	34.87 ± 0.23
293.15 K, x1 = 0.1006	31.53 ± 0.2
293.15 K, x1 = 0.1978	25.56 ± 0.16
293.15 K, x1 = 0.2838	21.2 ± 0.13
293.15 K, x1 = 0.3994	16.51 ± 0.099
293.15 K, x1 = 0.4508	14.78 ± 0.088
293.15 K, x1 = 0.5016	13.23 ± 0.078
293.15 K, x1 = 0.5487	11.92 ± 0.07
293.15 K, x1 = 0.5792	11.12 ± 0.065
293.15 K, x1 = 0.6735	8.899 ± 0.052
293.15 K, x1 = 0.7975	6.435 ± 0.039
293.15 K, x1 = 0.8946	4.816 ± 0.03
293.15 K, x1 = 0.9556	3.894 ± 0.024
298.15 K, x1 = 0.0486	27.11 ± 0.18
298.15 K, x1 = 0.0983	24.47 ± 0.16
298.15 K, x1 = 0.2015	19.76 ± 0.12
298.15 K, x1 = 0.2993	16.07 ± 0.1
298.15 K, x1 = 0.3999	12.89 ± 0.079
298.15 K, x1 = 0.4504	11.5 ± 0.07
298.15 K, x1 = 0.4981	10.3 ± 0.063
298.15 K, x1 = 0.5447	9.244 ± 0.056
298.15 K, x1 = 0.5844	8.422 ± 0.051
298.15 K, x1 = 0.6781	6.756 ± 0.041
298.15 K, x1 = 0.7974	5.096 ± 0.032
298.15 K, x1 = 0.8989	3.946 ± 0.025
298.15 K, x1 = 0.9494	3.392 ± 0.021
303.15 K, x1 = 0.0465	19.89 ± 0.13
303.15 K, x1 = 0.0998	17.79 ± 0.12
303.15 K, x1 = 0.2008	14.36 ± 0.093
303.15 K, x1 = 0.2979	11.66 ± 0.075
303.15 K, x1 = 0.4002	9.382 ± 0.06
303.15 K, x1 = 0.4487	8.472 ± 0.054
303.15 K, x1 = 0.491	7.751 ± 0.049
303.15 K, x1 = 0.5513	6.832 ± 0.043
303.15 K, x1 = 0.6	6.167 ± 0.039
303.15 K, x1 = 0.7032	4.949 ± 0.032
303.15 K, x1 = 0.8025	3.971 ± 0.025
303.15 K, x1 = 0.8829	3.29 ± 0.021
303.15 K, x1 = 0.9536	2.765 ± 0.017

CCOC(=O)CCl + COc1ccccc1
viscosity [mPa·s], 101.3 kPa
Details	x1 = 0.1012	x1 = 0.2027	x1 = 0.3	x1 = 0.3936	x1 = 0.4982	x1 = 0.6022	x1 = 0.6954	x1 = 0.7934	x1 = 0.8919
298.15 K	0.983 ± 0.008	0.987 ± 0.008	0.989 ± 0.008	0.996 ± 0.008	1.004 ± 0.009	1.019 ± 0.009	1.033 ± 0.009	1.049 ± 0.009	1.072 ± 0.009
303.15 K	0.915 ± 0.008	0.916 ± 0.008	0.918 ± 0.008	0.925 ± 0.008	0.932 ± 0.008	0.945 ± 0.008	0.958 ± 0.008	0.975 ± 0.009	0.993 ± 0.009
308.15 K	0.847 ± 0.007	0.847 ± 0.008	0.848 ± 0.008	0.853 ± 0.008	0.861 ± 0.008	0.871 ± 0.008	0.884 ± 0.008	0.901 ± 0.008	0.915 ± 0.009

CNC=O + CCC(=O)O
viscosity [mPa·s], 100 kPa
Details	x1 = 0.1115	x1 = 0.1858	x1 = 0.2665	x1 = 0.3545	x1 = 0.4849	x1 = 0.5942	x1 = 0.6734	x1 = 0.7583	x1 = 0.8978
303.15 K	1.025	1.069	1.116	1.169	1.248	1.315	1.365	1.42	1.514
308.15 K	0.9555	0.9958	1.039	1.087	1.159	1.22	1.265	1.315	1.399
313.15 K	0.8989	0.9358	0.9757	1.019	1.083	1.138	1.179	1.223	1.298
318.15 K	0.8503	0.8846	0.9214	0.9605	1.019	1.068	1.104	1.143	1.209

COC(=O)c1ccccc1 + COc1ccccc1
viscosity [mPa·s], 100 kPa
Details	x1 = 0.0898	x1 = 0.1468	x1 = 0.228	x1 = 0.3145	x1 = 0.4054	x1 = 0.5056	x1 = 0.6161	x1 = 0.7316	x1 = 0.8597
303.15 K	0.974 ± 0.04	1.038 ± 0.042	1.101 ± 0.045	1.187 ± 0.048	1.234 ± 0.05	1.307 ± 0.053	1.391 ± 0.056	1.48 ± 0.06	1.572 ± 0.064
308.15 K	0.894 ± 0.036	0.949 ± 0.039	1.007 ± 0.041	1.086 ± 0.044	1.129 ± 0.046	1.195 ± 0.049	1.272 ± 0.052	1.355 ± 0.055	1.439 ± 0.058
313.15 K	0.8 ± 0.033	0.85 ± 0.035	0.902 ± 0.037	0.972 ± 0.04	1.012 ± 0.041	1.074 ± 0.044	1.144 ± 0.047	1.22 ± 0.05	1.301 ± 0.053

COC(=O)c1ccccc1 + C1CCCCC1
101 kPa, x1 = 0.5996
Details	viscosity [mPa·s]
303.15 K	0.9344 ± 0.096
308.15 K	0.8826 ± 0.091
313.15 K	0.8403 ± 0.087

CCCCOCCO + CCCCCCCCO
viscosity [mPa·s], 101 kPa
Details	298.15 K	303.15 K	308.15 K
x1 = 0.6004	3.885 ± 0.086	–	2.965 ± 0.064
x1 = 0.8027	–	2.825 ± 0.062	2.545 ± 0.055

CCCCOCCO + O=[N+]([O-])c1ccccc1
298.15 K, 101 kPa
Details	viscosity [mPa·s]
x2 = 0.0547	2.794 ± 0.031
x2 = 0.1022	2.774 ± 0.031
x2 = 0.2045	2.736 ± 0.029
x2 = 0.3045	2.699 ± 0.027
x2 = 0.4006	2.651 ± 0.026
x2 = 0.4508	2.618 ± 0.025
x2 = 0.4991	2.58 ± 0.024
x2 = 0.5486	2.537 ± 0.023
x2 = 0.594	2.492 ± 0.023
x2 = 0.6924	2.376 ± 0.021
x2 = 0.7994	2.223 ± 0.018
x2 = 0.8996	2.042 ± 0.016
x2 = 0.9389	1.959 ± 0.015

CCOCCOCCOCC + ClC(Cl)Cl
298.15 K, 101 kPa
Details	viscosity [mPa·s]
x1 = 0.0089	0.538 ± 0.014
x1 = 0.0178	0.56 ± 0.015
x1 = 0.0263	0.579 ± 0.015
x1 = 0.0446	0.62 ± 0.016
x1 = 0.0878	0.723 ± 0.018
x1 = 0.1473	0.862 ± 0.02
x1 = 0.1744	0.916 ± 0.021
x1 = 0.2224	1.012 ± 0.022
x1 = 0.2736	1.108 ± 0.022
x1 = 0.3402	1.194 ± 0.022
x1 = 0.345	1.208 ± 0.022
x1 = 0.3725	1.248 ± 0.022
x1 = 0.4081	1.284 ± 0.022
x1 = 0.4541	1.316 ± 0.021
x1 = 0.509	1.341 ± 0.02
x1 = 0.5754	1.353 ± 0.019
x1 = 0.626	1.358 ± 0.017
x1 = 0.6804	1.352 ± 0.016
x1 = 0.7347	1.342 ± 0.015
x1 = 0.7875	1.326 ± 0.013
x1 = 0.8348	1.312 ± 0.013
x1 = 0.8675	1.309 ± 0.012
x1 = 0.9216	1.292 ± 0.011
x1 = 0.9756	1.278 ± 0.011
